Biological target: human F508del-CFTR (Homo sapiens, UniProt P13569, DEL508-508)
Assay: F508del-CFTR cell surface expression (corrector activity), DiscoveRx ß-galactosidase complementation chemiluminescence assay in recombinant U2OS cell line;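 note: U2OS cells co-expressing ProLink-tagged F508del-CFTR and a membrane-anchored enzyme acceptor, where more surface CFTR restores β-galactosidase activity measured by chemiluminescence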
Details: for EC50: EC50, F508del-CFTR cell surface expression; for Emax: U2OS
[1] = U2OS cells, 16h compound incubation, geomean values
[2] = in relation to Emax of corrector lumacaftor (=100%), arithmetic mean values
[3] = U2OS cells, 16h compound incubation, geomean of several measurements
[4] = in relation to the Emax of the corrector lumacaftor (=100%), U2OS cells, 16h compound incubation, arithmetic mean
[5] = U2OS cell line, 16h compound incubation, geomean values
[6] = in relation to the Emax of the corrector lumacaftor (=100%), U2OS cell line, 16h compound incubation, arithmetic mean values

Chain of human F508del-CFTR (P13569 with tags, fused parts or gaps DEL508-508): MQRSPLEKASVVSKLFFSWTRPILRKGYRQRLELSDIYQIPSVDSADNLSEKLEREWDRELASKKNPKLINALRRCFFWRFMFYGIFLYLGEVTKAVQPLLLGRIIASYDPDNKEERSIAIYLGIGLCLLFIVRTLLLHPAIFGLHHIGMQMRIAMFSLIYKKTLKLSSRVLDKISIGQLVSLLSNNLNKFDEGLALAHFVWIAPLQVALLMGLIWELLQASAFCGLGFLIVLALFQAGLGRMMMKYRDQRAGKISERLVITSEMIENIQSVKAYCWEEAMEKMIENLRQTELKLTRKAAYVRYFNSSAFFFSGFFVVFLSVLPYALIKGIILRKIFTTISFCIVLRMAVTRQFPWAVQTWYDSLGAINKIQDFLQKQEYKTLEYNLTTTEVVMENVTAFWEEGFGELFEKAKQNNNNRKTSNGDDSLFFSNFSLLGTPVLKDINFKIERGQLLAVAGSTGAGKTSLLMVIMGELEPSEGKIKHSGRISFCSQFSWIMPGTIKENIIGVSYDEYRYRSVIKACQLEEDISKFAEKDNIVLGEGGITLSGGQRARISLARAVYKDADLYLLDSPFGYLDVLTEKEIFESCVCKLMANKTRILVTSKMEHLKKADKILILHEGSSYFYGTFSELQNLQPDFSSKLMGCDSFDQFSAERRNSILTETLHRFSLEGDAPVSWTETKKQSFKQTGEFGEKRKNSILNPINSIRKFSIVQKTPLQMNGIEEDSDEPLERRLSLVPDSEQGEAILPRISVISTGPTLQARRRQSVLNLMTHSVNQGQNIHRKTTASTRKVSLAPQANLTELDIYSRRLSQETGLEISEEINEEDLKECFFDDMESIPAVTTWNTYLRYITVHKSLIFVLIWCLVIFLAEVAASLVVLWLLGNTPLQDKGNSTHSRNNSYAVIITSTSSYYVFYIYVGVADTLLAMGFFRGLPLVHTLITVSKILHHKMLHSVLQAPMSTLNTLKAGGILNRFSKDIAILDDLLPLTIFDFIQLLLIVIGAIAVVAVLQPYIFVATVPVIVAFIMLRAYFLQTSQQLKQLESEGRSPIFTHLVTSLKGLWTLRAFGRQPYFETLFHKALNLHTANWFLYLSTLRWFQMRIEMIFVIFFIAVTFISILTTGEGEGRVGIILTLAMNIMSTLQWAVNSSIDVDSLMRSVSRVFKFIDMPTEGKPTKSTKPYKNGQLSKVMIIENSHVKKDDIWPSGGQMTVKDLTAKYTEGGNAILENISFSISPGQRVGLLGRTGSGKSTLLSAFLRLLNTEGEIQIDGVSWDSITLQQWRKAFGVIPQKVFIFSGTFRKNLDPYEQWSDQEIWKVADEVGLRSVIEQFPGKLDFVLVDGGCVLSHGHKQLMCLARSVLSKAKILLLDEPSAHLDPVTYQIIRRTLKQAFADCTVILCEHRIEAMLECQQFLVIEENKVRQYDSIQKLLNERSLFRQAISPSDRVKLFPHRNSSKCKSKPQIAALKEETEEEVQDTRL

| EC50 [1] [nM] | Emax [2] [%] | EC50 [3] [nM] | Emax [4] [%] | Compound | EC50 [5] [nM] | Emax [6] [%] |
| --- | --- | --- | --- | --- | --- | --- |
| 947 | 206 | – | – | COc1cc2c(cn1)OC[C@@H](Cc1ccccc1)NC(=O)[C@H]1CCCCN1C(=O)[C@H](CC(C)C)N(C)C(=O)C[C@@H](C(=O)NCCc1nc(C3CC3)no1)NC2=O [Example 529, (7S,11S,17aR,20R)-20-benzyl-N-(2-(3-cyclopropyl-1,2,4-oxadiazol-5-yl)ethyl)-11-isobutyl-3-methoxy-10-methyl-5,9,12,18-tetraoxo-5,6,7,8,9,10,11,12,15,16,17,17a,18,19,20,21-hexadecahydro-14H-dipyrido[2,1-f:2′,3′-p][1]oxa[4,7,10,14]tetraazacycloheptadecine-7-carboxamide] | – | – |
| – | – | 197 | 324 | CC(C)C[C@H]1C(=O)N(C)[C@H](C)C(=O)N[C@H](Cc2ccccc2)COc2ccc3ncc(F)cc3c2C(=O)N[C@H](C(=O)NCCc2cc(C3CC3)on2)CC(=O)N1C [Example 798, (3S,7S,10R,13R)-13-benzyl-N-(2-(5-cyclopropylisoxazol-3-yl)ethyl)-20-fluoro-7-isobutyl-6,9,10-trimethyl-1,5,8,11-tetraoxo-1,2,3,4,5,6,7,8,9,10,11,12,13,14-tetradecahydro-[1]oxa[4,7,10,14]tetraazacycloheptadecino[16,17-f]quinoline-3-carboxamide] | – | – |
| – | – | – | – | COc1cccc(CCNC(=O)[C@@H]2CC(=O)N(C)[C@@H](CC(C)C)C(=O)N(C)CC(=O)N[C@H](Cc3ccccc3)COc3cnc4c(F)cccc4c3C(=O)N2)c1 [Example 350, (3S,7S,13R)-13-benzyl-18-fluoro-7-isobutyl-N-(3-methoxyphenethyl)-6,9-dimethyl-1,5,8,11-tetraoxo-1,2,3,4,5,6,7,8,9,10,11,12,13,14-tetradecahydro-[1]oxa[4,7,10,14]tetraazacycloheptadecino[17,16-c]quinoline-3-carboxamide] | 546 | 299 |
| – | – | 353 | 388 | COc1cc(CCNC(=O)[C@@H]2CC(=O)N(C)[C@@H](CC(C)C)C(=O)N(C)[C@H](C)C(=O)N[C@H](Cc3ccccc3)COc3ccc4cnc(C)cc4c3C(=O)N2)on1 [Example 825, (3S,7S,10R,13R)-13-benzyl-7-isobutyl-N-(2-(3-methoxyisoxazol-5-yl)ethyl)-6,9,10,20-tetramethyl-1,5,8,11-tetraoxo-1,2,3,4,5,6,7,8,9,10,11,12,13,14-tetradecahydro-[1]oxa[4,7,10,14]tetraazacycloheptadecino[16,17-f]isoquinoline-3-carboxamide] | – | – |
| – | – | 518 | 367 | COc1nccc2c1C(=O)N[C@H](C(=O)NCCn1nc3ccccc3n1)CC(=O)N(C)[C@@H](CC(C)C)C(=O)N1CCCC[C@@H]1C(=O)N[C@H](Cc1ccccc1)CO2 [Example 832, (7S,11S,17aR,20R)-N-(2-(2H-benzo[d][1,2,3]triazol-2-yl)ethyl)-20-benzyl-11-isobutyl-4-methoxy-10-methyl-5,9,12,18-tetraoxo-5,6,7,8,9,10,11,12,15,16,17,17a,18,19,20,21-hexadecahydro-14H-dipyrido[2,1-f:3′,4′-p][1]oxa[4,7,10,14]tetraazacycloheptadecine-7-carboxamide] | – | – |
| 748 | 159 | – | – | COc1cc2c(cn1)OC[C@@H](Cc1ccccc1)NC(=O)C1(CC1)N(C)C(=O)[C@H](CC(C)C)N(C)C(=O)C[C@@H](C(=O)NCCc1cc(C3CC3)no1)NC2=O [Example 648, (3′R,9′S,13′S)-3′-benzyl-N-(2-(3-cyclopropylisoxazol-5-yl)ethyl)-9′-isobutyl-17′-methoxy-7′,10′-dimethyl-5′,8′,11′,15′-tetraoxo-2′,3′,4′,5′,8′,9′,10′,11′,12′,13′,14′,15′-dodecahydro-7′H-spiro[cyclopropane-1,6′-pyrido[4,3-p][1]oxa[4,7,10,14]tetraazacycloheptadecine]-13′-carboxamide] | – | – |
| – | – | – | – | CC(C)C[C@H]1C(=O)N(CCC2CCCCC2)CC(=O)N[C@H](Cc2ccccc2)COc2ccc3ccccc3c2C(=O)N[C@H](C(=O)NCCc2ccc3c(c2)OCO3)CC(=O)N1C [Example 267, (3S,7S,13R)-N-(2-(benzo[d][1,3]dioxol-5-yl)ethyl)-13-benzyl-9-(2-cyclohexylethyl)-7-isobutyl-6-methyl-1,5,8,11-tetraoxo-1,2,3,4,5,6,7,8,9,10,11,12,13,14-tetradecahydronaphtho[1,2-p][1]oxa[4,7,10,14]tetraazacycloheptadecine-3-carboxamide] | 107 | 275 |
| – | – | 1040 | 356 | CC(C)C[C@H]1C(=O)N(C)[C@H](Cc2nc(-c3ccc(F)cn3)no2)C(=O)N[C@H](Cc2ccccc2)COc2cnc3ccc(F)cc3c2C(=O)N[C@H](C(=O)NCCc2nc3ncccn3n2)CC(=O)N1C [Example 844, (3S,7S,10R,13R)-N-(2-([1,2,4]triazolo[1,5-a]pyrimidin-2-yl)ethyl)-13-benzyl-20-fluoro-10-((3-(5-fluoropyridin-2-yl)-1,2,4-oxadiazol-5-yl)methyl)-7-isobutyl-6,9-dimethyl-1,5,8,11-tetraoxo-1,2,3,4,5,6,7,8,9,10,11,12,13,14-tetradecahydro-[1]oxa[4,7,10,14]tetraazacycloheptadecino[17,16-c]quinoline-3-carboxamide] | – | – |
| – | – | – | – | COc1nccc2c1C(=O)N[C@H](C(=O)NCCc1ccc3c(c1)OCO3)CC(=O)N(C)[C@@H](CC(C)C)C(=O)N(CCC1CCCCC1)CC(=O)N[C@H](Cc1ccccc1)CO2 [Example 281, (3R,9S,13S)-N-(2-(benzo[d][1,3]dioxol-5-yl)ethyl)-3-benzyl-7-(2-cyclohexylethyl)-9-isobutyl-16-methoxy-10-methyl-5,8,11,15-tetraoxo-2,3,4,5,6,7,8,9,10,11,12,13,14,15-tetradecahydropyrido[3,4-p][1]oxa[4,7,10,14]tetraazacycloheptadecine-13-carboxamide] | 110 | 361 |
| – | – | – | – | CC(C)C[C@H]1C(=O)N2CCOC[C@@H]2C(=O)N[C@H](Cc2ccccc2)COc2cnc3ccccc3c2C(=O)N[C@H](C(=O)NCCc2cc(C(F)(F)F)no2)CC(=O)N1C [Example 221, (9S,13S,19aR,22R)-22-benzyl-13-isobutyl-12-methyl-7,11,14,20-tetraoxo-N-(2-(3-(trifluoromethyl)isoxazol-5-yl)ethyl)-7,8,9,10,11,12,13,14,16,17,19,19a,20,21,22,23-hexadecahydro-[1,4]oxazino[3′,4′:6,7][1]oxa[4,7,10,14]tetraazacycloheptadecino[17,16-c]quinoline-9-carboxamide] | 833 | 229 |
| – | – | 92 | 472 | COc1noc(CCNC(=O)[C@@H]2CC(=O)N(C)[C@@H](CC(C)C)C(=O)N(C)[C@H](CC(F)F)C(=O)N[C@H](Cc3ccccc3)COc3ccc4ncc(F)cc4c3C(=O)N2)c1F [Example 967, (3S,7S,10R,13R)-13-benzyl-10-(2,2-difluoroethyl)-20-fluoro-N-(2-(4-fluoro-3-methoxyisoxazol-5-yl)ethyl)-7-isobutyl-6,9-dimethyl-1,5,8,11-tetraoxo-1,2,3,4,5,6,7,8,9,10,11,12,13,14-tetradecahydro-[1]oxa[4,7,10,14]tetraazacycloheptadecino[16,17-f]quinoline-3-carboxamide] | – | – |
| – | – | – | – | Cc1noc(C)c1CCNC(=O)[C@@H]1CC(=O)N(C)[C@@H](CC(C)C)C(=O)N2CCOC[C@@H]2C(=O)N[C@H](Cc2ccccc2)COc2ccc3ccccc3c2C(=O)N1 [Example 43, (4aR,7R,18S,22S)-7-benzyl-N-(2-(3,5-dimethylisoxazol-4-yl)ethyl)-22-isobutyl-21-methyl-5,16,20,23-tetraoxo-1,2,4,4a,5,6,7,8,16,17,18,19,20,21,22,23-hexadecahydronaphtho[1,2-p][1,4]oxazino[3,4-f][1]oxa[4,7,10,14]tetraazacycloheptadecine-18-carboxamide] | 862 | 137 |
| 47 | 284 | – | – | Cc1cc(CCNC(=O)[C@@H]2CC(=O)N(C)[C@@H](CC(C)C)C(=O)N(C)[C@H](CC3CCCCC3)C(=O)N[C@H](Cc3ccccc3)COc3cnc4ccccc4c3C(=O)N2)on1 [Example 709, (3S,7S,10R,13R)-13-benzyl-10-(cyclohexylmethyl)-7-isobutyl-6,9-dimethyl-N-(2-(3-methylisoxazol-5-yl)ethyl)-1,5,8,11-tetraoxo-1,2,3,4,5,6,7,8,9,10,11,12,13,14-tetradecahydro-[1]oxa[4,7,10,14]tetraazacycloheptadecino[17,16-c]quinoline-3-carboxamide] | – | – |

| Compound | EC50 [1] [nM] | Emax [2] [%] | EC50 [3] [nM] | Emax [4] [%] | EC50 [5] [nM] | Emax [6] [%] |
| --- | --- | --- | --- | --- | --- | --- |
| COc1cccc(CCNC(=O)[C@@H]2CC(=O)N(C)[C@@H](CC(C)C)C(=O)N3CCCC[C@@H]3C(=O)N[C@H](Cc3ccccc3)COc3nc4ccccn4c3C(=O)N2)c1 [Example 469, (7S,11S,22R,24aR)-22-benzyl-7-isobutyl-N-(3-methoxyphenethyl)-8-methyl-6,9,13,24-tetraoxo-1,3,4,6,7,8,9,10,11,12,13,21,22,23,24,24a-hexadecahydro-2H-pyrido[2,1-f]pyrido[2′,1′:2,3]imidazo[4,5-p][1]oxa[4,7,10,14]tetraazacycloheptadecine-11-carboxamide] | 381 | 110 | – | – | – | – |
| COc1cccc(CCNC(=O)[C@@H]2CC(=O)N(C)[C@@H](CC(C)C)C(=O)N3CCN(S(=O)(=O)c4cccnc4)C[C@@H]3C(=O)N[C@H](Cc3ccccc3)COc3ccc4ccccc4c3C(=O)N2)c1 [Example 742, (4aR,7R,18S,22S)-7-benzyl-22-isobutyl-N-(3-methoxyphenethyl)-21-methyl-5,16,20,23-tetraoxo-3-(pyridin-3-ylsulfonyl)-2,3,4,4a,5,6,7,8,16,17,18,19,20,21,22,23-hexadecahydro-1H-naphtho[1,2-p]pyrazino[2,1-f][1]oxa[4,7,10,14]tetraazacycloheptadecine-18-carboxamide] | 214 | 246 | – | – | – | – |
